Test [1] relates to Creb1, Bdnf, Rbbp4. Briefly: Plasticity gene expression by quantitative real time PCR in mouse primary neurons. In kind it is cell-based. The settings on record: for effect on 2-DG led increase in Bdnf gene expression: increasing concentrations co-treated with 2-DG. On the procedure:
Primary immature neuronal cultures were prepared from cerebral cortex of E14 embryos (day 14 of gestation) of CD1 mice under sterile conditions. Dissected cortices were incubated at 37° C. for 20 min in EBSS solution containing papain, L-cystine and EDTA, which was activated at 37 °C for 30 min and then was filtered through […] (Millipore, catalog number—SCGP00525). Cortices were then mechanically dissociated by trituration with glass pipettes. The rDNase was added in dissociated cells followed by incubation of these dissociated cells at 37 °C for 3 min. Thereafter, these cells were centrifuged at 2800 rpm for 5 min. Then supernatant was discarded, and cell were resuspended gently in a 5 ml mixture of EBSS and 10/10 solution (4:1 ratio). Then 5 ml of 10/10 solution was added gently on top and these resuspended cells were centrifuged at 2800 rpm for 10 min. Supernatant was again discarded and cells were resuspended in 10 ml MEM, Glutamax supplement (Thermo Fisher Scientific, Catalog number—41090036) containing 10% heat inactivated fetal bovine serum (Thermo Fisher Scientific, Catalog number—16140071), 5% heat inactivated horse serum (Thermo Fisher Scientific, Catalog number—26050088), and 1% penicillin/streptomycin (Thermo Fisher Scientific, Catalog number—15140122). Thereafter, resuspended cells were filtered through 70-micron cell strainer (Thomas Scientific, catalog number—4620F02) followed by their counting through Hemocytometer. Cells were, finally, plated at the density of 1 million cells/ml onto poly-D-Lysine (PDL; Sigma Aldrich, catalog number—P6407-10X5MG) coated pates and placed in CO2-buffered incubators at 37° C.
(§1) Total RNA was extracted from primary cortical neurons using NucleoSpin RNA II Kit (Clontech, Catalog number—740955-250). Thereafter, using the Taqman RNA-to-Ct, one step kit (Thermo Fisher Scientific, catalog number—4392938) and following the manufacturer's instructions, […] from each sample was mixed with the Taqman® Gene Expression Master Mix and Taqman® Gene Expression Assays for Creb1 (Catalog number—Mm00501607_m1), Bdnf (Catalog number—Mm04230607_s1), Rbbp4 (Catalog number—Mm00771401_g1), Bip (Catalog number—Mm00517691_m1), Trib3 (Catalog number—Mm00454879_m1), and Chac1 (Catalog number—Mm00509926_m1) with FAM labelled probe and Actin with VIC labelled probe all from Thermo Fisher Scientific on an Applied Biosystems 7500 Fast Real Time PCR System. For assessing gene expression of various specific Bdnf exons in mouse primary neurons, two step qPCR was used. Total RNA from primary cortical neurons was extracted using NucleoSpin RNA II Kit (Clontech, Catalog number—740955-250) and a total of 1.5 μg RNA was used to synthesize cDNA with the SuperScript® III First-Strand Synthesis System (Thermo Fisher Scientific, Catalog number—18080051). Quantitative RT-PCR was then performed using SYBR green (Thermo Fisher Scientific, Catalog number—4309155) on an Applied Biosystems 7500 Fast Real Time PCR System. Quantitative levels for all genes were normalized to the housekeeping gene GAPDH and expressed relative to the relevant control samples as fold change. The sequences of primers used in this part of the study were as follows: Bdnf I forward: […] (SEQ ID NO:9) and Bdnf I reverse: […] (SEQ ID NO:10); Bdnf II forward: […] (SEQ ID NO:11) and Bdnf II reverse: […] (SEQ ID NO:12); Bdnf IV forward #2: […] (SEQ ID NO:13) and Bdnf IV reverse #2: […] (SEQ ID NO:14); Bdnf VI forward: […] (SEQ ID NO:15) and Bdnf VI reverse: […] (SEQ ID NO:16); Bdnf VII forward: […] (SEQ ID NO:17) and Bdnf VII reverse: […] (SEQ ID NO:18) Bdnf IX forward: […] (SEQ ID NO:19) and Bdnf IX reverse: […] (SEQ ID NO:20); Gapdh forward #2: […] (SEQ ID NO:21) and Gapdh reverse #2: […] (SEQ ID NO: 22).
For orientation: Quantitative PCR measures a nucleic acid by following its amplification.

The test system of test [2] is Trib3, Chac1, Bip. Briefly: Expression of ATF4 target genes and chaperone Bip in mouse primary neurons. In kind it is cell-based. The note with it: for effect on glucosamine induced expression of Trib3: co-treatment with glucosamine, primary neurons. On the procedure:
as §1

Test [3] concerns Trib3 promoter, Bdnf promoter. Briefly: Promoter reporter luciferase assay in primary neurons. In kind it is cell-based, mouse. The note with it: 5 μM co-treated with 2-DG 10 mM, 9 h. On the procedure: Primary neurons were co-transfected with various plasmids such as different Bdnf exon promoters each tagged with firefly luciferase or Trib3 promoter tagged with firefly luciferase and pTK-renilla luciferase plasmid at 1:10 ratio using Lipofectamine 2000 (Thermo Fisher Scientific, catalog number—11668019) according to the manufacturer's instructions to control for transfection efficiency. […] Thereafter, luciferase activity was measured using dual luciferase assay kit (Promega) and bioluminometer (MDS Analytical Technologies). Final luciferase activity was calculated by normalizing firefly luciferase activity with Renilla luciferase activity and then the valued were converted to fold change with respect to control.

Test [4] relates to Bdnf. Briefly: Bdnf gene expression in hippocampal slices submerged in ACSF. On the set-up: species or system mouse. The note with it: 1 μg/ml with 2-DG 10 mM in ACSF.
Test [5] deals with hippocampal slices. Briefly: Long term potentiation (fEPSP) in submerged hippocampal slices. Also noted: species or system mouse. The note with it: 1 μg/ml with 2-DG 10 mM, 6 h, hippocampal slices. The source says:
Brains were quickly removed from mice sacrificed by cervical dislocation and placed in cold artificial cerebrospinal fluid (ACSF) (bubbled with 95% O2/5% CO2) containing (in mM): 124 NaCl, 4 KCl, 1 Na2HPO4, 25 NaHCO3, 2 CaCl2, 2 MgCl2, and 10 glucose. The pH and osmolarity of the solution were 7.4 and 310 mOsm/L, respectively. The hippocampus was isolated and placed on a mechanical tissue chopper to produce transverse hippocampal slices of 400 μm thickness. […] Hippocampal slices were allowed to recover for at least 90 min prior to beginning the experiment. For recordings, glass electrodes were filled with ACSF and positioned in the CA1 stratum radiatum to record fEPSPs evoked by local stimulation (0.1 ms) of Schaffer collateral fibers using a bipolar concentric electrode placed laterally to the recording electrode (˜150 μm). For LTP recordings, the voltage intensity of the stimulation test pulse (square pulse, 100 us duration) for each slice was determined to be the voltage intensity that had generated 30-40% of the maximum slope obtained using input-output relationships. Facilitation was calculated as the ratio of the slopes of the second and first fEPSPs, and plotted as a function of the inter-pulse duration. For LTP, a test pulse was applied every minute. […] Residual potentiation was calculated as the average of the last 15 min of 2 h of recordings.

Where [6] appears, read: 3 μM, 6 h, mouse primary neurons.
[7] abbreviates: 5 μM co-treated with 2-DG 10 mM, 9 h.

The values that follow come from patent publication US20240197760A1, “ACTIVATORS OF INTEGRATED STRESS RESPONSE PATHWAY FOR PROTECTION AGAINST FERROPTOSIS” (Burke Neurological Institute, priority 2021, published 2024).

*1 amine or outer side, *2 acyl side, *3 side chain or, on linkers, in order; H or OH if unused. Where a SMILES comes first, the peptide text is derived from it. Bridges are numbered along the chain shown (N, C = ends). Roman numbers before positions name the chains, in order. [ ]: non-standard residue; d: D form. Actinocin(9to1) = Cc1c2oc3c(C)ccc(C(=O)[*:1])c3nc-2c(C(=O)[*:2])c(N)c1=O; NMeV = CN[C@H](C(=O)O)C(C)C; Sar = CNCC(=O)O

Turning to `O=C[C@H](O)[C@@H](O)[C@H](O)[C@H](O)CO` [D-glucose], in test [1] (6 h, mouse primary neurons), the “effect on 2-DG led increase in Bdnf gene expression” value is “decreased 2-DG led increase in Bdnf gene expression in a dose dependent manner”.
Take tunicamycin: the “gene expression of chaperone Bip” value in test [2] (setting [6]) is given as “increase”. For the same compound, the “expression of plasticity genes Creb1 and Bdnf” value in test [1] (setting [6]) was “increase”.
As to `Cn1cc(-c2ccc3c(c2)CCN3C(=O)Cc2cccc(C(F)(F)F)c2)c2c(N)ncnc21` [GSK2606414, 7-methyl-5-(1-{[3-(trifluoromethyl)phenyl]acetyl}-2,3-dihydro-1H-indol-5-yl)-7H-pyrrolo[2,3-d]pyrimidin-4-amine], the “effect on 2-DG led increase in Trib3 expression (mRNA)” value in test [2] (setting [7]) is recorded as “completely blocked”. Besides, the “effect on glucosamine induced expression of Trib3” value in test [2] is reported as “blocked”. Besides, the “effect on glucosamine induced expression of Trib3” value in test [2] (listed as PERK inhibitor I) is “completely blocked”. The “effect on 2-DG led increase in Bdnf expression (mRNA)” value in test [1] (setting [7]) is listed as “blocked”. In addition, the “effect on glucosamine led increase in Bdnf gene expression” value in test [1] (co-treatment with glucosamine, primary neurons) is given as “blocked”. Also, in test [3], the “effect on 2-DG led increase in Bdnf promoter activity” value is given as “blocked” and the “effect on 2-DG led increase in Trib3 promoter activity” value is “completely blocked”.
For `Cc1c2oc3c(C)ccc(C(=O)N[C@@H]4C(=O)N[C@H](C(C)C)C(=O)N5CCC[C@H]5C(=O)N(C)CC(=O)N(C)[C@@H](C(C)C)C(=O)O[C@@H]4C)c3nc-2c(C(=O)N[C@@H]2C(=O)N[C@H](C(C)C)C(=O)N3CCC[C@H]3C(=O)N(C)CC(=O)N(C)[C@@H](C(C)C)C(=O)O[C@@H]2C)c(N)c1=O` [ActD, actinomycin D] (I: T[dV]P[Sar][NMeV] / II: T[dV]P[Sar][NMeV]; ester I:1-I:C, II:1-II:C; linker I:N-II:N via Actinocin(9to1)), in test [4], the “effect on 2-DG led increase in Bdnf gene expression in hippocampal slices” value is “able to block”. The “effect on 2-DG led increase in plasticity genes Creb1, Bdnf and Rbbp4” value in test [1] (co-treatment with 2-DG, 6 h, mouse immature primary neurons) is on record as “completely blocked”. The “effect on 2-DG led induction in LTP” value in test [5] is “completely blocked”.
As for `N[C@H]1C(O)O[C@H](CO)[C@@H](O)[C@@H]1O` (stereo partly shown) [glucosamine], the “glucosamine induced expression of plasticity genes in combination with actinomycin D” value in test [1] (6 h, mouse immature primary neurons) is “transcription dependent”. The “expression of plasticity genes Creb1, Bdnf and Rbbp4 (mRNA)” value in test [1] (increasing concentrations, 6 h, mouse primary neurons) is on record as “dose dependent increase”.
Turning to `O=C[C@@H](O)[C@@H](O)[C@H](O)[C@H](O)CO` [D-mannose], the “effect on 2-DG led increase in Bdnf gene expression” value in test [1] (6 h, mouse primary neurons) is “decreased 2-DG led increase in Bdnf gene expression in a dose dependent manner”.
